Laboratory results published in patent US9034855B2, “Substituted phenylacetate and phenylpropane amides and use thereof” (Bayer Intellectual Property GmbH, priority 2010, dated 2015).

Key:
human V1a receptor = biological target: T1, human V1a receptor (Homo sapiens, UniProt P37288); assay: Cellular in vitro assay for determining the vasopressin receptor activity (aequorin luminescence, recombinant CHO cells), human V1a; format: cell-based; settings: CHO cells expressing aequorin, transfected with human V1a receptor; agonist [Arg8]-vasopressin; read-out: IC50 hV1a
T1 construct: expressed in transfected cells; host or cells: CHO K1 (ATCC), constitutively expressing modified aequorin
T1 sequence (P37288 whole entry): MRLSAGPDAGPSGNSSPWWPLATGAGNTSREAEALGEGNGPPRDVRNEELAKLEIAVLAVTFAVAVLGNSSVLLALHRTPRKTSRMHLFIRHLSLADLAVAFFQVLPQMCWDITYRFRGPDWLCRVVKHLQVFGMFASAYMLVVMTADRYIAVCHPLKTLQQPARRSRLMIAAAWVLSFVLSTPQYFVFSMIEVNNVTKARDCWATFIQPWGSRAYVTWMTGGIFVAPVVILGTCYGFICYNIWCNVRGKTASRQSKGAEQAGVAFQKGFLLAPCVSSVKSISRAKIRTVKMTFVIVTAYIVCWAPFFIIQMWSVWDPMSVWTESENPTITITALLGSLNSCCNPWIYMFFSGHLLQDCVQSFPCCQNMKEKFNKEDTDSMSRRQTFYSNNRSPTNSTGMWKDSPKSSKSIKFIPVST
Source text: (§1) B-1. Cellular In Vitro Assay for Determining the Vasopressin Receptor Activity
(§2) The identification of agonists and antagonists of the V1a and V2 vasopressin receptors from humans and rats and also the quantification of the activity of the substances described here takes place using recombinant cell lines. These cells derive originally from a hamster's ovary epithelial cell (Chinese Hamster Ovary, CHO K1, ATCC: American Type Culture Collection, Manassas, Va. 20108, USA). The test cell lines constitutively express a modified form of the calcium-sensitive photoprotein aequorin, which, after reconstitution with the cofactor coelenterazine, emits light when there are increases in the free calcium concentration (Rizzuto R., Simpson A. W., Brini M., Pozzan T.; Nature 358 (1992) 325-327). In addition, the cells are stably transfected with the human or rat V1a or V2 receptors. In the case of the Gs-coupling V2 receptors, the cells are stably transfected with a further gene, which codes for the promiscuous Gα16 protein (Amatruda T. T., Steele D. A., Slepak V. Z., Simon M A., Proc. Na. Acad. Sci. USA 88 (1991), 5587-5591), either independently or as a fusion gene. The resulting vasopressin receptor test cells react to stimulation of the recombinantly expressed vasopressin receptors by intracellular release of calcium ions, which can be quantified by the resulting aequorin luminescence using a suitable luminometer (Milligan G., Marshall F., Rees S., Trends in Pharmaco. Sci. 17 (1996) 235-237).
(§3) On the day before the assay, the cells are plated out in culture medium (DMEM, 10% FCS, 2 mM glutamine, 10 mM HEPES) in 384-well microtiter plates and kept in a cell incubator (96% atmospheric humidity, 5% v/v carbon dioxide, 37° C.). On the day of the assay, the culture medium is replaced by a Tyrode solution (140 mM sodium chloride, 5 mM potassium chloride, 1 mM magnesium chloride, 2 mM calcium chloride, 20 mM glucose, 20 mM HEPES), which additionally contains the cofactor coelenterazine (50 μM), and the microtiter plate is then incubated for a further 3-4 hours. The test substances in various concentrations are placed for 10 to 20 minutes in the wells of the microtiter plate before the agonist [Arg8]-vasopressin is added, and the resulting light signal is measured immediately in the luminometer. The IC50 values are calculated using the GraphPad PRISM computer program (Version 3.02).
(§4) Table A below lists representative IC50 values for the compounds according to the invention transfected with the human V1a or V2 receptor: […]

human V2 receptor = biological target: T2, human V2 receptor (Homo sapiens, UniProt P30518); assay: Cellular in vitro assay for determining the vasopressin receptor activity (aequorin luminescence, recombinant CHO cells), human V2; format: cell-based; settings: CHO cells expressing aequorin and Gα16, transfected with human V2 receptor; agonist [Arg8]-vasopressin; read-out: IC50 hV2
T2 construct: expressed in transfected cells; host or cells: CHO K1 (ATCC), constitutively expressing modified aequorin, co-transfected with promiscuous G-alpha-16
T2 sequence (P30518 whole entry): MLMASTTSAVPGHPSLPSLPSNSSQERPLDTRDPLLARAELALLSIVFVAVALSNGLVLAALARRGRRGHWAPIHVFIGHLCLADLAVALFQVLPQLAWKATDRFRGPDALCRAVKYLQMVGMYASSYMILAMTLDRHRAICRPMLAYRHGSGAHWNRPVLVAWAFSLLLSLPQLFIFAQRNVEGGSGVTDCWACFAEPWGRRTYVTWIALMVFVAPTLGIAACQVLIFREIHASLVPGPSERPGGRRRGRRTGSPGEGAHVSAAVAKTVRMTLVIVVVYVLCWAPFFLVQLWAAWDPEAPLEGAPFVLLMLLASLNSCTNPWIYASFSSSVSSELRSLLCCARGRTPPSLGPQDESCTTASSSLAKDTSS
Source text: as §1, §2, §3, §4

| IC50 (human V1a receptor) | IC50 (human V2 receptor) | Compound |
| --- | --- | --- |
| 1.9 nM | 4.1 nM | O=C(Cn1nc(-c2ccc(Cl)cc2)n(C[C@H](O)C(F)(F)F)c1=O)NC(C(=O)NC1(C(=O)O)CC1)c1cccc(C(F)(F)F)c1 (single isomer, unassigned) [Example 4] |
| 1.5 nM | 3.6 nM | CC(C)(CO)NC(=O)C(NC(=O)Cn1nc(-c2ccc(Cl)cc2)n(C[C@H](O)C(F)(F)F)c1=O)c1cccc(C(F)(F)F)c1 (single isomer, unassigned) [Example 41] |
| 1380 nM | 346 nM | CC(C)(NC(=O)C(NC(=O)Cn1nc(-c2ccc(Cl)cc2)n(C[C@H](O)C(F)(F)F)c1=O)c1cccc(C(F)(F)F)c1)C(N)=O (single isomer, unassigned) [Example 28] |
| 32.8 nM | 38.6 nM | COC(=O)C(C)(C)NC(=O)C[C@H](NC(=O)Cn1nc(-c2ccc(Cl)cc2)n(C[C@H](O)C(F)(F)F)c1=O)c1cccc(C(F)(F)F)c1 [Example 38, Methyl N-{(3S)-3-[({3-(4-chlorophenyl)-5-oxo-4-[(2S)-3,3,3-trifluoro-2-hydroxypropyl]-4,5-dihydro-1H-1,2,4-triazol-1-yl}acetyl)amino]-3-[3-(trifluoromethyl)phenyl]propanoyl}-2-methylalaninate] |
| 2.2 nM | 7.6 nM | O=C(Cn1nc(-c2ccc(Cl)cc2)n(C[C@H](O)C(F)(F)F)c1=O)NC(C(=O)NCCO)c1cccc(C(F)(F)F)c1 (stereo partly drawn) [Example 49, 2-[({3-(4-Chlorophenyl)-5-oxo-4-[(2S)-3,3,3-trifluoro-2-hydroxypropyl]-4,5-dihydro-1H-1,2,4-triazol-1-yl}acetyl)amino]-N-(2-hydroxyethyl)-2-[3-(trifluoromethyl)phenyl]acetamide] |
| 3 nM | 144 nM | COCCNC(=O)C(NC(=O)Cn1nc(-c2ccc(Cl)cc2)n(C[C@H](O)C(F)(F)F)c1=O)c1ccccc1C(F)(F)F (stereo partly drawn) [Example 56, 2-[({3-(4-Chlorophenyl)-5-oxo-4-[(2S)-3,3,3-trifluoro-2-hydroxypropyl]-4,5-dihydro-1H-1,2,4-triazol-1-yl}acetyl)amino]-N-(2-methoxyethyl)-2-[2-(trifluoromethyl)phenyl]acetamide] |
| 1.2 nM | 2.7 nM | CC(C)(NC(=O)[C@](C)(NC(=O)Cn1nc(-c2ccc(Cl)cc2)n(C[C@H](O)C(F)(F)F)c1=O)c1cccc(C(F)(F)F)c1)C(N)=O [Example 22, N^2-{(2R)-2-[({3-(4-Chlorophenyl)-5-oxo-4-[(2S)-3,3,3-trifluoro-2-hydroxypropyl]-4,5-dihydro-1H-1,2,4-triazol-1-yl}acetyl)amino]-2-[3-(trifluoromethyl)phenyl}propanoyl]-2-methylalaninamide] |
| 2.4 nM | 4.5 nM | COC(=O)C(C)(C)NC(=O)[C@](C)(NC(=O)Cn1nc(-c2ccc(Cl)cc2)n(C[C@H](O)C(F)(F)F)c1=O)c1cccc(C(F)(F)F)c1 [Example 20, Methyl N-{(2R)-2-[({3-(4-chlorophenyl)-5-oxo-4-[(2S)-3,3,3-trifluoro-2-hydroxypropyl]-4,5-dihydro-1H-1,2,4-triazol-1-yl}acetyl)amino]-2-[3-(trifluoromethyl)phenyl]propanoyl}-2-methylalaninate] |
| 17 nM | 1050 nM | CC(C)(NC(=O)C(NC(=O)Cn1nc(-c2ccc(Cl)cc2)n(Cc2ccccc2F)c1=O)c1ccccc1Cl)C(N)=O (racemic) [Example 33, N^2-[(2-Chlorophenyl)({[3-(4-chlorophenyl)-4-(2-fluorobenzyl)-5-oxo-4,5-dihydro-1H-1,2,4-triazol-1-yl]acetyl}amino)acetyl]-2-methylalaninamide] |
| 60 nM | 1600 nM | COCCn1c(-c2ccc(Cl)s2)nn(CC(=O)NC(C(=O)NC(C)(C)CO)c2cccc(C(F)(F)F)c2)c1=O (single isomer, unassigned) [Example 43, 2-({[3-(5-Chloro-2-thienyl)-4-(2-methoxyethyl)-5-oxo-4,5-dihydro-1H-1,2,4-triazol-1-yl]acetyl}amino)-N-(1-hydroxy-2-methylpropan-2-yl)-2-[3-(trifluoromethyl)phenyl]acetamide] |
| 9.2 nM | 58 nM | CCOC(=O)C1(NC(=O)C(NC(=O)Cn2nc(-c3ccc(Cl)cc3)n(C[C@H](O)C(F)(F)F)c2=O)c2cccc(C(F)(F)F)c2)CC1 (stereo partly drawn) [Example 1, Ethyl 1-({[({3-(4-chlorophenyl)-5-oxo-4-[(2S)-3,3,3-trifluoro-2-hydroxypropyl]-4,5-dihydro-1H-1,2,4-triazol-1-yl}acetyl)amino][3-(trifluoromethyl)phenyl]acetyl}amino)cyclopropanecarboxylate] |
| 3.5 nM | 136 nM | COCCNC(=O)C[C@H](NC(=O)Cn1nc(-c2ccc(Cl)cc2)n(C[C@H](O)C(F)(F)F)c1=O)c1ccccc1C(F)(F)F [Example 58, (3S)-3-[({3-(4-Chlorophenyl)-5-oxo-4-[(2S)-3,3,3-trifluoro-2-hydroxypropyl]-4,5-dihydro-1H-1,2,4-triazol-1-yl}acetyl)amino]-N-(2-methoxyethyl)-3-[2-(trifluoromethyl)phenyl]propanamide] |
| 8.9 nM | 655 nM | CC(C)(NC(=O)C(NC(=O)Cn1nc(-c2ccc(Cl)cc2)n(CCC(F)(F)F)c1=O)c1ccccc1Cl)C(N)=O (racemic) [Example 35, N^2-[(2-Chlorophenyl)({[3-(4-chlorophenyl)-5-oxo-4-(3,3,3-trifluoropropyl)-4,5-dihydro-1H-1,2,4-triazol-1-yl]acetyl}amino)acetyl]-2-methylalaninamide] |
| 28 nM | 497 nM | COC(=O)C(C)(C)NC(=O)C(NC(=O)Cn1nc(-c2ccc(Cl)cc2)n(C2CC2)c1=O)c1cccc(C(F)(F)F)c1 (racemic) [Example 11, Methyl N-{({[3-(4-chlorophenyl)-4-cyclopropyl-5-oxo-4,5-dihydro-1H-1,2,4-triazol-1-yl]acetyl}-amino)[3-(trifluoromethyl)phenyl]acetyl}-2-methylalaninate] |
